Experimental data as given in patent publication US7229997B2, “Compounds and their use” (Biovitrum AB, priority 2002, dated 2007).
pKi: −log10 of the molar value.

target: T1, human 5-HT2c receptor (Homo sapiens, UniProt P28335); assay: 5-HT2c receptor affinity assay (displacement of 3H-labelled 5-HT, Scintillation Proximity Assay); format: binding; conditions: not given
T1 construct: expressed in transfected cells
T1 sequence (P28335 33-458): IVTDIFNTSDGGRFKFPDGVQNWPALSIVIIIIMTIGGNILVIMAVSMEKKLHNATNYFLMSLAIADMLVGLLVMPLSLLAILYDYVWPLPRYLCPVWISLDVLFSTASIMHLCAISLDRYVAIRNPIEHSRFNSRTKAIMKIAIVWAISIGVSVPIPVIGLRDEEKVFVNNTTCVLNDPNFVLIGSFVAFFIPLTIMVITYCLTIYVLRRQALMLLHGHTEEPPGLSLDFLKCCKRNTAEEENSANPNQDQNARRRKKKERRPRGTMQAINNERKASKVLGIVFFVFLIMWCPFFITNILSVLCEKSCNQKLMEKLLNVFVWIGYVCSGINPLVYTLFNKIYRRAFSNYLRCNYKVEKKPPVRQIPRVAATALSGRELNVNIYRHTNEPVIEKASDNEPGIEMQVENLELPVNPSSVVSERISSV
Protocol: The 5-HT2c receptor affinity of compounds in the Examples was determined in competition experiments, where the ability of each compound in serial dilution to displace ^3H-labelledlabeled 5-HT, bound to membranes prepared from a transfected HEK293 cell line stably expressing the human 5-HT2c receptor protein, was monitored by Scintillation Proximity Assay technology. Non-specific binding was defined using 5 μM mianserin.

SMILES	pKi
FC(F)(F)c1ccc(N2CCNCC2)nc1SCc1ccccc1Cl [Example 15, 1-[6-(2-Chloro-benzylsulfanyl)-5-trifluoromethyl-pyridin-2-yl]-piperazine, acetate]	9.00
CCSc1nc(N2CCNCC2)ccc1C(F)(F)F [Example 17, 1-(6-Ethylsulfanyl-5-trifluoromethyl-pyridin-2-yl)-piperazine, acetate]	7.82
FC(F)(F)c1ccc(N2CCNCC2)nc1OCc1ccco1 [Example 25, 1-[6-(Furan-2-ylmethoxy)-5-trifluoromethyl-pyridin-2-yl]-piperazine, acetate]	7.85
CCSc1nc(N2CCNC[C@H]2C)ccc1C(F)(F)F [Example 30, 1-(6-Ethylsulfanyl-5-trifluoromethyl-pyridin-2-yl)-2-(R)-methyl-piperazine, acetate]	7.62
COc1ccc(F)cc1COc1nc(N2CCNCC2)ccc1C(F)(F)F [Example 36, 1-[6-(5-Fluoro-2-methoxy-benzyloxy)-5-trifluoromethyl-pyridin-2-yl]-piperazine, acetate]	8.30

same assay, conditions: membranes from transfected HEK293 cells expressing human 5-HT2c receptor; 3H-5-HT radioligand; read-out: 5-HT2C receptor Affinity Ki

SMILES	pKi
FC(F)(F)c1ccc(N2CCNCC2)nc1OCCOc1cccc2cccnc12 [Example 21, 8-[2-(6-Piperazin-1-yl-3-trifluoromethyl-pyridin-2-yloxy)-ethoxyl-quinoline, acetate]	6.61
C[C@H]1CN(c2ccc(C(F)(F)F)c(SCc3ccccc3Cl)n2)CCN1 [Example 38, 1-[6-(2-Chloro-benzylsulfanyl)-5-trifluoromethyl-pyridin-2-yl]-3-(S)-methyl-piperazine, acetate]	8.22
